Where a name gives a salt, the structure may show the parent alone.
These molecules were tested against T1, TLR7/NFKb HEK cells (Homo sapiens, UniProt Q9NYK1) (assay: HEK Cell Assay (TLR7/NFKb reporter, Steady-Glo luciferase readout)). Conditions: 30 min compound preincubation, then R*48 agonist for 5 hours, read-out: Potency.
T1 construct: expressed in transfected cells; host or cells: HEK cells (TLR7/NFKb reporter line)
T1 sequence (Q9NYK1 27-1049): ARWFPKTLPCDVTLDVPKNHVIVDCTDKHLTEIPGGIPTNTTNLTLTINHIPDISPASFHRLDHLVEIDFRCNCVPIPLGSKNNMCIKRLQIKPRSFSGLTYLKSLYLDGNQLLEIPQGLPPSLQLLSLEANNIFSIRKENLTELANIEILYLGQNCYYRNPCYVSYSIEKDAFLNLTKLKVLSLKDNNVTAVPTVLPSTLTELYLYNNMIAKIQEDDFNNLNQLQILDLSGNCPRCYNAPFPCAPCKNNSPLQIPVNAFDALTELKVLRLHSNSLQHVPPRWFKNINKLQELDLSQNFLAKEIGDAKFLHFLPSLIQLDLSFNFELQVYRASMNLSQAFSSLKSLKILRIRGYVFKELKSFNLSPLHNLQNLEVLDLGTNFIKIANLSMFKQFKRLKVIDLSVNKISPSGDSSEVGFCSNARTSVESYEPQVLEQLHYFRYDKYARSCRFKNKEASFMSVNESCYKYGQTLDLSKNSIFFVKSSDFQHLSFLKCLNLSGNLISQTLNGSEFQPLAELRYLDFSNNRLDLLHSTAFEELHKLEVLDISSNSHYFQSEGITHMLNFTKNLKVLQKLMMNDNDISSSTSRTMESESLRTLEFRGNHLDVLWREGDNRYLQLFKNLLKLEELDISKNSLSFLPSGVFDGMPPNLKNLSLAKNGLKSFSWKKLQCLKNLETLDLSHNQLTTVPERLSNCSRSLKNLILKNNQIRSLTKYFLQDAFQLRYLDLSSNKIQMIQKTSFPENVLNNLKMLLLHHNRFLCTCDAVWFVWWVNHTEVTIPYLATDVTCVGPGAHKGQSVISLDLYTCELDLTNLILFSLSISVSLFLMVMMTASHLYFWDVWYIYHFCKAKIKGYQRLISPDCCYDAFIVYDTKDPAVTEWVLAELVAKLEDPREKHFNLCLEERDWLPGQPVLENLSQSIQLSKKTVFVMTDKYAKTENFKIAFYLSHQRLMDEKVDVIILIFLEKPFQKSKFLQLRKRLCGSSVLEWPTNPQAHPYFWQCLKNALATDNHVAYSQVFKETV
Format: cell-based
In short: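 Steady-Glo luminescence after 5 h stimulation with R*48 agonist, following 30 min compound preincubation. Assay run in HEK cells carrying a TLR7/NFKb luciferase reporter, plated at 5000 cells/well and grown 24 h at 37° C (10% CO2) before treatment.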

`O=C(CN1CCOCC1)N[C@H]1C[C@@H](C2CC2)CN(c2ccc(F)c3ncccc23)C1` (racemic) [Compound 367, cis-N-[5-cyclopropyl-1-(8-fluoroquinolin-5-yl)piperidin-3-yl]-2-(morpholin-4-yl)acetamide] and `O=C(CN1CCOCC1)N[C@H]1C[C@@H](C2CC2)CN(c2ccc(C(F)(F)F)c3ncccc23)C1` (relative stereo) [Compound 336, cis-N-[5-cyclopropyl-1-[8-(trifluoromethyl)quinolin-5-yl]piperidin-3-yl]-2-(morpholin-4-yl)acetamide] cannot be ordered by IC50: > 10 µM for the first, > 10 µM for the second.

First: C[C@H]1C[C@@H](NC(=O)C2CC(F)(F)C2)CN(c2ccc(C(F)(F)F)c3nccnc23)C1 [Compound 257, 3,3-difluoro-N-[(3R,5S)-5-methyl-1-[8-(trifluoromethyl)quinoxalin-5-yl]piperidin-3-yl]cyclobutane-1-carboxamide]
Second: CC(C(=O)N[C@@H]1C[C@H](C)CN(c2ccc(C(F)(F)F)c3nccnc23)C1)N1CC(N)C1 (single isomer, unassigned) [Compound 370]
The IC50 of the first is higher: 1 to 10 µM for the first, < 1 µM for the second.

First: C[C@@H]1CN(c2ccnc3nccnc23)C[C@H](CN2CCN(C)C(C)(C)C2)O1 [Compound 54, (2R,6S)-2-methyl-4-(pyrido[2,3-b]pyrazin-8-yl)-6-((3,3,4-trimethylpiperazin-1-yl)methyl)morpholine]
Second: C[C@@H]1CN(c2ccnc3nccnc23)C[C@H](CN2CCC(N3CCCC3)CC2)O1 [Compound 56, (2R,6S)-2-methyl-4-(pyrido[2,3-b]pyrazin-8-yl)-6-((4-(pyrrolidin-1-yl)piperidin-1-yl)methyl)morpholine]
The IC50 of the first is lower: < 1 µM for the first, 1 to 10 µM for the second.

First: COCCN[C@@H]1C[C@H](C)CN(c2ccnc3nccnc23)C1 [Compound 18, (3R,5S)—N-(2-methoxyethyl)-5-methyl-1-(pyrido[2,3-b]pyrazin-8-yl)piperidin-3-amine]
Second: C[C@H]1C[C@@H](NC(=O)CC(C)(C)C)CN(c2ccnc3nccnc23)C1 [Compound 41, 3,3-dimethyl-N-((3R,5S)-5-methyl-1-(pyrido[2,3-b]pyrazin-8-yl)piperidin-3-yl)butanamide]
The IC50 of the first is higher: > 10 µM for the first, 1 to 10 µM for the second.

`CCN(CC)CCNCC1CCN(c2ccnc3cc(F)ccc23)CC1` [Compound 383, N,N-Diethyl-N′-[1-(7-fluoro-quinolin-4-yl)-piperidin-4-ylmethyl]-ethane-1,2-diamine] and `CN1CCC(CNC(=O)C2CN(c3ccc(C#N)c4ncccc34)CC(F)(F)C2)CC1` (single isomer, unassigned) [Compound 545] fall in the same range of IC50: 1 to 10 µM for the first, 1 to 10 µM for the second.

`C[C@H]1C[C@@H](NC(=O)CC(O)C(C)(C)C)CN(c2ccc(C#N)c3nccnc23)C1` (single isomer, unassigned) [Compound 146] and `C[C@H]1C[C@@H](NC(C)(C)CO)CN(c2ccc(C#N)c3nccnc23)C1` [Compound 231, 8-[(3R,5S)-3-[(1-hydroxy-2-methylpropan-2-yl)amino]-5-methylpiperidin-1-yl]quinoxaline-5-carbonitrile] cannot be ordered by IC50: < 1 µM for the first, < 1 µM for the second.

First: C[C@H]1C[C@@H](NC2CCC(O)CC2)CN(c2ccc(C#N)c3nccnc23)C1 (single isomer, unassigned) [Compound 135]
Second: N#Cc1ccc(N2CC(NC3CCC(O)CC3)CC(C(F)(F)F)C2)c2nccnc12 (single isomer, unassigned) [Compound 92, cis,trans-8-(-3-((4-hydroxycyclohexyl)amino)-5-(trifluoromethyl)piperidin-1-yl)quinoxaline-5-carbonitrile]
The IC50 of the first is lower: < 1 µM for the first, 1 to 10 µM for the second.

Compared with `COCCN[C@@H]1C[C@H](C)CN(c2ccc(C(N)=O)c3ncccc23)C1` [Compound 183, 5-[(3R,5S)-3-[(2-methoxyethyl)amino]-5-methylpiperidin-1-yl]quinoline-8-carboxamide], `COCCN[C@@H]1C[C@H](C)CN(c2ccc(OC)c3ncccc23)C1` [Compound 190, (3R,5S)—N-(2-methoxyethyl)-1-(8-methoxyquinolin-5-yl)-5-methylpiperidin-3-amine] is lower in IC50: > 10 µM for the first, < 1 µM for the second.

Compared with `C[C@H]1C[C@@H](NC(=O)CN(C)C)CN(c2ccc(C(F)(F)F)c3nccnc23)C1` [Compound 254, 2-(dimethylamino)-N-[(3R,5S)-5-methyl-1-[8-(trifluoromethyl)quinoxalin-5-yl]piperidin-3-yl]acetamide], `C[C@H]1C[C@@H](NCC(=O)O)CN(c2ccc(C(F)(F)F)c3ncccc23)C1` [Compound 571, [(3R,5S)-5-Methyl-1-(8-trifluoromethyl-quinolin-5-yl)-piperidin-3-ylamino]-acetic acid] is higher in IC50: < 1 µM for the first, 1 to 10 µM for the second. The first is the more potent here.

`C[C@H]1C[C@@H](NC(=O)CC(C)(C)C)CN(c2ccc(C(F)F)c3ncccc23)C1` [Compound 205, N-[(3R,5S)-1-[8-(difluoromethyl)quinolin-5-yl]-5-methylpiperidin-3-yl]-3,3-dimethylbutanamide] and `C[C@H]1C[C@@H](N)CN(c2ccc(C(F)F)c3ncccc23)C1` [Compound 68, (3R,5S)-1-[8-(difluoromethyl)quinolin-5-yl]-5-methylpiperidin-3-amine] cannot be ordered by IC50: < 1 µM for the first, < 1 µM for the second.

First: C[C@H]1C[C@@H](NC(=O)COC(C)(C)C)CN(c2ccnc3nccnc23)C1 [Compound 164, 2-(tert-butoxy)-N-[(3R,5S)-5-methyl-1-[pyrido[2,3-b]pyrazin-8-yl]piperidin-3-yl]acetamide]
Second: CNC(=O)[C@@H]1C[C@@H](C)CN(c2ccc(C#N)c3nccnc23)C1 (relative stereo) [Compound 542, trans-1-(8-Cyano-quinoxalin-5-yl)-5-methyl-piperidine-3-carboxylic acid methylamide]
The IC50 of the first is higher: > 10 µM for the first, 1 to 10 µM for the second. The second is the more potent here.

`CN[C@@H]1C[C@H](C)CN(c2ccc(C(F)(F)F)c3ncccc23)C1` [Compound 451, Methyl-[(3R,5S)-5-methyl-1-(8-trifluoromethyl-quinolin-5-yl)-piperidin-3-yl]-amine hydrochloride] and `C[C@H]1C[C@@H](NC2CCN(C)C2=O)CN(c2ccc(C(F)(F)F)c3ncccc23)C1` (single isomer, unassigned) [Compound 237] cannot be ordered by IC50: < 1 µM for the first, < 1 µM for the second.

Compared with `C[C@H]1C[C@@H](N)CN(c2ncc(C#N)c3ncncc23)C1` [Compound 458, 5-((3R,5S)-3-Amino-5-methyl-piperidin-1-yl)-pyrido[4,3-d]pyrimidine-8-carbonitrile hydrochloride], `COCCN[C@@H]1C[C@H](C)CN(c2c(F)cc(C#N)c3nccnc23)C1` [Compound 344, 7-fluoro-8-[(3R,5S)-3-[(2-methoxyethyl)amino]-5-methylpiperidin-1-yl]quinoxaline-5-carbonitrile] is lower in IC50: > 10 µM for the first, 1 to 10 µM for the second.

`C[C@H]1C[C@@H](NC2CCOC2)CN(c2ccc(C#N)c3nccnc23)C1` (stereo partly drawn) [Compound 138, 8-[(3S,5R)-3-methyl-5-[(oxolan-3-yl)amino]piperidin-1-yl]quinoxaline-5-carbonitrile] and `C[C@@H]1CN(c2ccc(C#N)c3nccnc23)C[C@H](C)O1` [Compound 44, 8-((2R,6S)-2,6-dimethylmorpholino)quinoxaline-5-carbonitrile] cannot be ordered by IC50: < 1 µM for the first, < 1 µM for the second.

`CN1CCCC1CNC(=O)C1CCN(c2ccc(C#N)c3ncccc23)CC1` (stereo not drawn) [Compound 433, 1-(8-Cyano-quinolin-5-yl)-piperidine-4-carboxylic Acid (1-methyl-pyrrolidin-2-ylmethyl)-amide] and `C[C@H]1C[C@@H](NC(=O)CC2CCCN(C)C2)CN(c2ccc(C(F)(F)F)c3ncccc23)C1` (stereo partly drawn) [Compound 279, N-[(3R,5S)-5-methyl-1-[8-(trifluoromethyl)quinolin-5-yl]piperidin-3-yl]-2-(1-methylpiperidin-3-yl)acetamide] cannot be ordered by IC50: < 1 µM for the first, < 1 µM for the second.

`N#Cc1ccc(N2CC(N)CC(F)(F)C2)c2nccnc12` (single isomer, unassigned) [Compound 75] and `CN1CCN(CC(=O)N[C@H]2C[C@@H](C(F)(F)F)CN(c3ccc(C#N)c4nccnc34)C2)CC1` (relative stereo) [Compound 229, cis-N-[1-(8-cyanoquinoxalin-5-yl)-5-(trifluoromethyl)piperidin-3-yl]-2-(4-methylpiperazin-1-yl)acetamide] cannot be ordered by IC50: < 1 µM for the first, < 1 µM for the second.

Molecule `Cc1ccc(N2C[C@@H](C)C[C@@H](NC(=O)CN3CCOCC3)C2)c2cccnc12` [Compound 466, N-[(3R,5S)-5-Methyl-1-(8-methyl-quinolin-5-yl)-piperidin-3-yl]-2-morpholin-4-yl-acetamide] has an IC50 of 1 to 10 µM.

Reference: patent US10947213B1 (Merck Patent GmbH, priority 2015, dated 2021)
